Test results published in ChEMBL document CHEMBL1201862, “PubChem BioAssay data set” (2004).
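Five concentrations, 48 hours, 96-well plates. GI50 is the concentration that inhibits growth by half.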 Calls of active or inactive are those of the source. No stated cut-off is given here; in the data, active = GI50 up to about 1.1 µM and inactive = higher.

How the values were obtained:
Assay in all cases: NCI-60 cell line screen, 48 h
UO-31 = system: UO-31
NCI/ADR-RES = system: NCI/ADR-RES
786-0 = system: 786-0
NCI-H460 = system: NCI-H460
MCF7 = system: MCF7
NCI-H522 = system: NCI-H522
T47D = system: T47D
Malme-3M = system: Malme-3M
UACC-257 = system: UACC-257
BT-549 = system: BT-549
SF-268 = system: SF-268
HOP-92 = system: HOP-92
OVCAR-5 = system: OVCAR-5
OVCAR-8 = system: OVCAR-8
CCRF-CEM = system: CCRF-CEM
NCI-H23 = system: NCI-H23
SK-OV-3 = system: SK-OV-3
TK-10 = system: TK-10
COLO 205 = system: COLO 205
NCI-H226 = system: NCI-H226
A549 = system: A549
KM12 = system: KM12
SNB-19 = system: SNB-19
HL-60 = system: HL-60
SN12C = system: SN12C
HCT-15 = system: HCT-15
DU-145 = system: DU-145
Hs-578T = system: Hs-578T
IGROV-1 = system: IGROV-1
MDA-MB-231 = system: MDA-MB-231
U-251 = system: U-251
SF-539 = system: SF-539
SR = system: SR
SNB-75 = system: SNB-75
M14 = system: M14
SF-295 = system: SF-295
PC-3 = system: PC-3
MDA-N = system: MDA-N
SK-MEL-2 = system: SK-MEL-2
HT-29 = system: HT-29
UACC-62 = system: UACC-62
RXF 393 = system: RXF 393
ACHN = system: ACHN
SK-MEL-5 = system: SK-MEL-5
SW-620 = system: SW-620
HCT-116 = system: HCT-116
MDA-MB-435 = system: MDA-MB-435
CAKI-1 = system: CAKI-1
RPMI-8226 = system: RPMI-8226
MOLT-4 = system: MOLT-4
EKVX = system: EKVX
K562 = system: K562
HCC 2998 = system: HCC 2998
HOP-62 = system: HOP-62
OVCAR-4 = system: OVCAR-4
OVCAR-3 = system: OVCAR-3
LOX IMVI = system: LOX IMVI
SK-MEL-28 = system: SK-MEL-28
A498 = system: A498

## Cc1cc(N(C)C)ccc1/N=N/c1ccc2ncccc2c1
UO-31
  GI50: > 100 µM (inactive)
NCI/ADR-RES
  GI50: > 100 µM (inactive)
786-0
  GI50: > 100 µM (inactive)
NCI-H460
  GI50: 27.4 µM (inactive)
MCF7
  GI50: 20.3 µM (inactive)
NCI-H522
  GI50: 13.3 µM (inactive)
T47D
  GI50: 16.9 µM (inactive)
Malme-3M
  GI50: 62.4 µM (inactive)
UACC-257
  GI50: 98.4 µM (inactive)
BT-549
  GI50: 35.2 µM (inactive)
SF-268
  GI50: > 100 µM (inactive)
HOP-92
  GI50: > 100 µM (inactive)
OVCAR-5
  GI50: > 100 µM (inactive)
OVCAR-8
  GI50: > 100 µM (inactive)
CCRF-CEM
  GI50: 40 µM (inactive)
NCI-H23
  GI50: 59.3 µM (inactive)
SK-OV-3
  GI50: > 100 µM (inactive)
TK-10
  GI50: 25.6 µM (inactive)
COLO 205
  GI50: 33.9 µM (inactive)
NCI-H226
  GI50: 31.8 µM (inactive)
A549
  GI50: > 100 µM (inactive)
KM12
  GI50: 66.7 µM (inactive)
SNB-19
  GI50: 28.9 µM (inactive)
HL-60
  GI50: 19.9 µM (inactive)
SN12C
  GI50: > 100 µM (inactive)
HCT-15
  GI50: 40.6 µM
DU-145
  GI50: > 100 µM (inactive)
Hs-578T
  GI50: 30.6 µM (inactive)
IGROV-1
  GI50: 86.3 µM (inactive)
MDA-MB-231
  GI50: 84.1 µM (inactive)
U-251
  GI50: > 100 µM (inactive)
SF-539
  GI50: > 100 µM (inactive)
SR
  GI50: 44.4 µM (inactive)
SNB-75
  GI50: 25.4 µM (inactive)
M14
  GI50: > 100 µM (inactive)
SF-295
  GI50: > 100 µM (inactive)
PC-3
  GI50: 59.2 µM (inactive)
MDA-N
  GI50: > 100 µM (inactive)
SK-MEL-2
  GI50: > 100 µM (inactive)
HT-29
  GI50: 35.3 µM (inactive)
UACC-62
  GI50: > 100 µM (inactive)
RXF 393
  GI50: > 100 µM (inactive)
ACHN
  GI50: > 100 µM (inactive)
SK-MEL-5
  GI50: 17.2 µM (inactive)
SW-620
  GI50: > 100 µM (inactive)
HCT-116
  GI50: 59.7 µM (inactive)
MDA-MB-435
  GI50: > 100 µM (inactive)
CAKI-1
  GI50: > 100 µM (inactive)
RPMI-8226
  GI50: 20.2 µM (inactive)
MOLT-4
  GI50: 16.8 µM (inactive)
EKVX
  GI50: 23.6 µM (inactive)
K562
  GI50: 29.8 µM (inactive)

## O=[N+]([O-])c1ccc(C(c2c[nH]c3ccccc23)c2c[nH]c3ccccc23)cc1
HCC 2998
  GI50: 13.2 µM (inactive)
UO-31
  GI50: 10.9 µM (inactive)
NCI/ADR-RES
  GI50: 11 µM (inactive)
786-0
  GI50: 14.3 µM (inactive)
NCI-H460
  GI50: 3.57 µM (inactive)
MCF7
  GI50: 2.24 µM (inactive)
HOP-62
  GI50: 13.5 µM (inactive)
T47D
  GI50: 0.653 µM (active)
Malme-3M
  GI50: 15.5 µM (inactive)
UACC-257
  GI50: 3.03 µM (inactive)
BT-549
  GI50: 4.97 µM (inactive)
SF-268
  GI50: 8.85 µM (inactive)
OVCAR-5
  GI50: 23.6 µM (inactive)
OVCAR-8
  GI50: 14.7 µM (inactive)
CCRF-CEM
  GI50: 0.309 µM (active)
NCI-H23
  GI50: 7.1 µM (inactive)
SK-OV-3
  GI50: 16.8 µM (inactive)
TK-10
  GI50: 12.7 µM (inactive)
COLO 205
  GI50: 8.13 µM (inactive)
NCI-H226
  GI50: 10.7 µM (inactive)
OVCAR-4
  GI50: 12 µM (inactive)
A549
  GI50: 6.82 µM (inactive)
KM12
  GI50: 6.24 µM (inactive)
SNB-19
  GI50: 15.7 µM (inactive)
OVCAR-3
  GI50: 1.94 µM (inactive)
HL-60
  GI50: 17.7 µM (inactive)
SN12C
  GI50: 14.4 µM (inactive)
HCT-15
  GI50: 11 µM
DU-145
  GI50: 4.47 µM (inactive)
Hs-578T
  GI50: 19 µM (inactive)
LOX IMVI
  GI50: 11.1 µM (inactive)
MDA-MB-231
  GI50: 12.4 µM (inactive)
U-251
  GI50: 11.8 µM (inactive)
SK-MEL-28
  GI50: 18.5 µM (inactive)
SF-539
  GI50: 16.4 µM (inactive)
A498
  GI50: 16.1 µM (inactive)
SR
  GI50: 4.5 µM (inactive)
SNB-75
  GI50: 4.8 µM (inactive)
M14
  GI50: 11.7 µM (inactive)
SF-295
  GI50: 22.6 µM (inactive)
PC-3
  GI50: 12.3 µM (inactive)
MDA-N
  GI50: 11.6 µM (inactive)
SK-MEL-2
  GI50: 7.31 µM (inactive)
HT-29
  GI50: 11.5 µM (inactive)
UACC-62
  GI50: 10.5 µM (inactive)
ACHN
  GI50: 8.05 µM (inactive)
SK-MEL-5
  GI50: 5.97 µM (inactive)
SW-620
  GI50: 12.4 µM (inactive)
MDA-MB-435
  GI50: 13.3 µM (inactive)
RPMI-8226
  GI50: 1.45 µM (inactive)
MOLT-4
  GI50: 9.66 µM (inactive)
EKVX
  GI50: 19.4 µM (inactive)
K562
  GI50: 6.61 µM (inactive)
